Measured values taken from publication PMC10218303, “Novel Polymyxin-Inspired Peptidomimetics Targeting the SARS-CoV-2 Spike:hACE2 Interface” (International Journal of Molecular Sciences, 2023).
Like-named read-outs stand apart in the source and are kept apart here. Bridge positions count the residues as written; N and C are the ends. Square brackets hold non-standard residues; d marks the D form. Peptide text beside a SMILES is read from it. Dab = NCC[C@H](N)C(=O)O

What was measured:
[1] = test system: SARS-CoV-2 (strain Delta); conditions: for IC50: strain Delta, 2 h
[2] = test system: SARS-CoV-2 (strain 20A.EU2); conditions: strain 20A.EU2, 2 h
[3] = in vitro; conditions: human
[4] = in vitro; conditions: human; remark: listed apart in the source
[5] = amide bond, 23-membered ring
[6] = test system: SARS-CoV-2 (strain Delta); assay: microbe, parasite or virus in culture; conditions: Severe acute respiratory syndrome coronavirus 2, 120 h, read-out: IC50 Delta
[7] = the molecule shown is the open-chain precursor

Row | Molecule | IC50 [1] | IC50 [2] | CC50 [3] | CC50 [4] | further results
1 | CC(C)C[C@@H]1NC(=O)[C@@H](Cc2ccccc2)NC(=O)[C@H](Cc2c[nH]c3ccccc23)NC(=O)[C@@H](NC(=O)[C@@H](N)CC(C)C)CCNC(=O)[C@H]([C@@H](C)O)NC(=O)[C@H](CCN)NC(=O)[C@H](CCN)NC1=O [monomer 5] (H-L[Dab]W[dF]L[Dab][Dab]T; lactam 2-C) | > 50 µM | > 50 µM | > 50 µM | > 50 µM | –
2 | CC(C)C[C@@H]1NC(=O)[C@@H](Cc2ccccc2)NC(=O)[C@H](Cc2ccc(OC(C)(C)C)cc2)NC(=O)[C@@H](NC(=O)[C@H](CCNC(=O)OC(C)(C)C)NC(=O)OCC2c3ccccc3-c3ccccc32)CCNC(=O)[C@H]([C@@H](C)OC(C)(C)C)NC(=O)[C@H](CCNC(=O)OC(C)(C)C)NC(=O)[C@H](Cc2cn(C(=O)OC(C)(C)C)c3ccccc23)NC1=O | – | – | – | – | ring closure, isolated yield ([5]; from Fmoc-Dab(Boc)-Dab-Tyr(tBu)-dPhe-Leu-Trp(Boc)-Dab(Boc)-Thr(tBu)-OH?, HATU/HOAt/2,4,6-collidine, DCM/DMF, 0.71 mM): 87%
3 | Ac-Glu(tBu)-Thr(tBu)-Dab(Boc)-Dab(H-Ala(N3))-Tyr(tBu)-dPhe-Leu-Dab(Boc)-Dab(Boc)-OH? | – | – | – | – | ring closure, isolated yield [5, 7]: 65%
4 | CC(=O)N[C@@H](CCC(=O)O)C(=O)N[C@H](C(=O)N[C@@H](CCN)C(=O)N[C@H]1CCNC(=O)[C@H](Cn2cc(CC(=O)N[C@@H](CC(C)C)C(=O)N[C@H]3CCNC(=O)[C@H]([C@@H](C)O)NC(=O)[C@H](CCN)NC(=O)[C@H](CCN)NC(=O)[C@H](CC(C)C)NC(=O)[C@@H](Cc4ccccc4)NC(=O)[C@H](Cc4c[nH]c5ccccc45)NC3=O)nn2)NC(=O)[C@H](CCN)NC(=O)[C@H](CCN)NC(=O)[C@H](Cc2ccc(O)cc2)NC(=O)[C@@H](Cc2ccccc2)NC(=O)[C@H](Cc2ccc(O)cc2)NC1=O)[C@@H](C)O [dimer 7] | > 50 µM | > 50 µM | > 50 µM | > 50 µM | antiviral effect, in words [1]: a hint of antiviral effect
5 | CC(=O)N[C@@H](CCC(=O)O)C(=O)N[C@H](C(=O)N[C@@H](CCN)C(=O)N[C@H]1CCNC(=O)[C@H](Cn2cc(CC(=O)O)nn2)NC(=O)[C@H](CCN)NC(=O)[C@H](CCN)NC(=O)[C@H](CC(C)C)NC(=O)[C@@H](Cc2ccccc2)NC(=O)[C@H](Cc2ccc(O)cc2)NC1=O)[C@@H](C)O [monomer 9] | > 50 µM | > 50 µM | > 50 µM | > 50 µM | –
6 | N#C[C@@]1(c2ccc3c(N)ncnn23)O[C@H](CO)[C@@H](O)[C@H]1O [GS-441524, reference compound] | – | – | – | > 40 µM | IC50 [6]: 2.3 µM
7 | CC(=O)N[C@@H](CCC(=O)O)C(=O)N[C@H](C(=O)N[C@@H](CCN)C(=O)N[C@H]1CCNC(=O)[C@H](Cn2cc(CC(=O)N[C@@H](CCN)C(=O)N[C@H]3CCNC(=O)[C@H]([C@@H](C)O)NC(=O)[C@H](CCN)NC(=O)[C@H](Cc4c[nH]c5ccccc45)NC(=O)[C@H](CC(C)C)NC(=O)[C@@H](Cc4ccccc4)NC(=O)[C@H](Cc4c[nH]c5ccccc45)NC3=O)nn2)NC(=O)[C@H](CCN)NC(=O)[C@H](CCN)NC(=O)[C@H](CC(C)C)NC(=O)[C@@H](Cc2ccccc2)NC(=O)[C@H](Cc2ccc(O)cc2)NC1=O)[C@@H](C)O [dimer 10] | > 50 µM | > 50 µM | > 50 µM | > 50 µM | –
8 | CC(C)C[C@@H]1NC(=O)[C@@H](Cc2ccccc2)NC(=O)[C@H](Cc2cn(C(=O)OC(C)(C)C)c3ccccc23)NC(=O)[C@@H](NC(=O)[C@H](CCNC(=O)OC(C)(C)C)NC(=O)OCC2c3ccccc3-c3ccccc32)CCNC(=O)[C@H]([C@@H](C)OC(C)(C)C)NC(=O)[C@H](CCNC(=O)OC(C)(C)C)NC(=O)[C@H](Cc2cn(C(=O)OC(C)(C)C)c3ccccc23)NC1=O | – | – | – | – | ring closure, isolated yield ([5]; from Fmoc-Dab(Boc)-Dab-Trp(Boc)-dPhe-Leu-Trp(Boc)-Dab(Boc)-Thr(tBu)-OH?, HATU/HOAt/2,4,6-collidine, DCM/DMF, 0.7 mM): 70%
9 | CC(=O)N[C@@H](CCC(=O)O)C(=O)N[C@H](C(=O)N[C@@H](CCN)C(=O)N[C@H]1CCNC(=O)[C@H](Cn2cc(CC(=O)O)nn2)NC(=O)[C@H](CCN)NC(=O)[C@H](CCN)NC(=O)[C@H](Cc2ccc(O)cc2)NC(=O)[C@@H](Cc2ccccc2)NC(=O)[C@H](Cc2ccc(O)cc2)NC1=O)[C@@H](C)O [monomer 6] | > 50 µM | > 50 µM | > 50 µM | > 50 µM | –
10 | Ac-Glu(tBu)-Thr(tBu)-Dab(Boc)-Dab(H-Ala(N3))-Tyr(tBu)-dPhe-Tyr(tBu)-Dab(Boc)-Dab(Boc)-OH? | – | – | – | – | ring closure, isolated yield [5, 7]: 48%
11 | CC(C)C[C@@H]1NC(=O)[C@@H](Cc2ccccc2)NC(=O)[C@H](Cc2c[nH]c3ccccc23)NC(=O)[C@@H](NC(=O)[C@@H](N)CCN)CCNC(=O)[C@H]([C@@H](C)O)NC(=O)[C@H](CCN)NC(=O)[C@H](Cc2c[nH]c3ccccc23)NC1=O [monomer 8] (H-[Dab][Dab]W[dF]LW[Dab]T; lactam 2-C) | > 50 µM | > 50 µM | > 50 µM | > 50 µM | antiviral effect, in words [1]: a hint of antiviral effect
12 | CC(C)C[C@@H]1NC(=O)[C@@H](Cc2ccccc2)NC(=O)[C@H](Cc2ccc(OC(C)(C)C)cc2)NC(=O)[C@@H](NC(=O)[C@H](CCOC(c2ccccc2)(c2ccccc2)c2ccccc2)NC(=O)OCC2c3ccccc3-c3ccccc32)CCNC(=O)[C@H]([C@@H](C)OC(C)(C)C)NC(=O)[C@H](CCOC(c2ccccc2)(c2ccccc2)c2ccccc2)NC(=O)[C@H](Cc2cn(C(=O)OC(C)(C)C)c3ccccc23)NC1=O | – | – | – | – | ring closure, isolated yield ([5]; from Fmoc-Hse(Trt)-Dab-Tyr(tBu)-dPhe-Leu-Trp(Boc)-Hse(Trt)-Thr(tBu)-OH?, HATU/HOAt/2,4,6-collidine, DCM/DMF, 0.7 mM): 63%
13 | Ac-Leu-Thr(tBu)-Dab(Boc)-Dab(H-Ala(N3))-Ile-dPhe-Tyr(tBu)-Hse(Trt)-Hse(Trt)-OH? | – | – | – | – | ring closure, isolated yield [5, 7]: 90%
14 | CC(C)C[C@@H]1NC(=O)[C@@H](Cc2ccccc2)NC(=O)[C@H](Cc2ccc(OC(C)(C)C)cc2)NC(=O)[C@@H](NC(=O)[C@H](CCOC(c2ccccc2)(c2ccccc2)c2ccccc2)NC(=O)OCC2c3ccccc3-c3ccccc32)CCNC(=O)[C@H]([C@@H](C)OC(C)(C)C)NC(=O)[C@H](CCNC(=O)OC(C)(C)C)NC(=O)[C@H](Cc2cn(C(=O)OC(C)(C)C)c3ccccc23)NC1=O | – | – | – | – | ring closure, isolated yield ([5]; from Fmoc-Hse(Trt)-Dab-Tyr(tBu)-dPhe-Leu-Trp(Boc)-Dab(Boc)-Thr(tBu)-OH?, HATU/HOAt/2,4,6-collidine, DCM/DMF, 0.7 mM): 70%
15 | CC[C@H](C)[C@@H]1NC(=O)[C@@H](NC(=O)[C@H](CCN)NC(=O)[C@@H](NC(=O)[C@H](CC(C)C)NC(C)=O)[C@@H](C)O)CCNC(=O)[C@H](Cn2cc(CC(=O)N[C@@H](CCN)C(=O)N[C@H]3CCNC(=O)[C@H]([C@@H](C)O)NC(=O)[C@H](CCN)NC(=O)[C@H](Cc4c[nH]c5ccccc45)NC(=O)[C@H](CC(C)C)NC(=O)[C@@H](Cc4ccccc4)NC(=O)[C@H](Cc4ccc(O)cc4)NC3=O)nn2)NC(=O)[C@H](CCN)NC(=O)[C@H](CCN)NC(=O)[C@H](Cc2ccc(O)cc2)NC(=O)[C@@H](Cc2ccccc2)NC1=O [dimer 3] | > 50 µM | > 50 µM | > 50 µM | > 50 µM | –
16 | CC[C@H](C)[C@@H]1NC(=O)[C@@H](NC(=O)[C@H](CCN)NC(=O)[C@@H](NC(=O)[C@H](CC(C)C)NC(C)=O)[C@@H](C)O)CCNC(=O)[C@H](Cn2cc(CCC(=O)N[C@@H](CCN)C(=O)N[C@H]3CCNC(=O)[C@H]([C@@H](C)O)NC(=O)[C@H](CCN)NC(=O)[C@H](Cc4c[nH]c5ccccc45)NC(=O)[C@H](CC(C)C)NC(=O)[C@@H](Cc4ccccc4)NC(=O)[C@H](Cc4ccc(O)cc4)NC3=O)nn2)NC(=O)[C@H](CCN)NC(=O)[C@H](CCN)NC(=O)[C@H](Cc2ccc(O)cc2)NC(=O)[C@@H](Cc2ccccc2)NC1=O [dimer 4] | > 50 µM | > 50 µM | > 50 µM | > 50 µM | –
17 | CC(C)C[C@H](NC(=O)OCC1c2ccccc2-c2ccccc21)C(=O)N[C@H]1CCNC(=O)[C@H]([C@@H](C)OC(C)(C)C)NC(=O)[C@H](CCNC(=O)OC(C)(C)C)NC(=O)[C@H](CCNC(=O)OC(C)(C)C)NC(=O)[C@H](CC(C)C)NC(=O)[C@@H](Cc2ccccc2)NC(=O)[C@H](Cc2cn(C(=O)OC(C)(C)C)c3ccccc23)NC1=O | – | – | – | – | ring closure, isolated yield ([5]; from Fmoc-Leu-Dab-Trp(Boc)-dPhe-Leu-Dab(Boc)-Dab(Boc)-Thr(tBu)-OH?, HATU/HOAt/2,4,6-collidine, DCM/DMF, 0.7 mM): 78%
18 | CC[C@H](C)[C@@H]1NC(=O)[C@@H](NC(=O)[C@H](CCN)NC(=O)[C@@H](NC(=O)[C@H](CC(C)C)NC(C)=O)[C@@H](C)O)CCNC(=O)[C@H](Cn2cc(CC(=O)O)nn2)NC(=O)[C@H](CCN)NC(=O)[C@H](CCN)NC(=O)[C@H](Cc2ccc(O)cc2)NC(=O)[C@@H](Cc2ccccc2)NC1=O [monomer 2] | > 50 µM | > 50 µM | > 50 µM | > 50 µM | –
19 | Ac-Leu-Thr(tBu)-Dab(Boc)-Dab(H-Ala(N3))-Ile-dPhe-Tyr(tBu)-Dab(Boc)-Dab(Boc)-OH? | – | – | – | – | ring closure, isolated yield [5, 7]: 74%
20 | CC(C)C[C@@H]1NC(=O)[C@@H](Cc2ccccc2)NC(=O)[C@H](Cc2ccc(O)cc2)NC(=O)[C@@H](NC(=O)[C@@H](N)CCN)CCNC(=O)[C@H]([C@@H](C)O)NC(=O)[C@H](CCN)NC(=O)[C@H](Cc2c[nH]c3ccccc23)NC1=O [monomer 1] (H-[Dab][Dab]Y[dF]LW[Dab]T; lactam 2-C) | > 50 µM | > 50 µM | > 50 µM | > 50 µM | –
21 | CC[C@H](C)[C@@H]1NC(=O)[C@@H](NC(=O)[C@H](CCNC(=O)OC(C)(C)C)NC(=O)[C@@H](NC(=O)[C@H](CC(C)C)NC(C)=O)[C@@H](C)OC(C)(C)C)CCNC(=O)[C@H](CN=[N+]=[N-])NC(=O)[C@H](CCNC(=O)OC(C)(C)C)NC(=O)[C@H](CCNC(=O)OC(C)(C)C)NC(=O)[C@H](Cc2ccc(OC(C)(C)C)cc2)NC(=O)[C@@H](Cc2ccccc2)NC1=O | – | – | – | – | ring closure, isolated yield ([5]; from Ac-Leu-Thr(tBu)-Dab(Boc)-Dab(H-azidoAla)-Ile-dPhe-Tyr(tBu)-Dab(Boc)-Dab(Boc)-OH, HATU/HOAt/2,4,6-collidine, DCM/DMF 14:1, 0.7 mM): 74%
